Results reported in patent US4771068A, “Mitomycin derivatives having anti-tumor and antibacterial utility” (priority 1985, dated 1988).
Converted amounts (≈) assume the structure as drawn.

Legend:
[1] = system: Staphylococcus aureus ATCC 6538P; experiment: Antibacterial activity (minimum growth inhibitory concentration), agar dilution method; assay type: cell-based; conditions: ATCC6538P, pH 7.0, agar dilution method, read-out: minimum growth inhibitory concentration, SA
Description: (§1) Antibacterial activities of Compounds (I) against various bacteria are shown by the minimum growth inhibitory concentration (μg/ml) in Table 3. The minimum growth inhibitory concentration was measured at pH 7.0 according to the agar dilution method. In the table, bacteria are indicated by the following letters.
SA: Staphylococcus aureus ATCC 6538P

[2] = system: Bacillus subtilis 10707; experiment: as above; assay type: cell-based; conditions: Bacillus subtilis 10707, pH 7.0, agar dilution method; read-out: minimum growth inhibitory concentration, BS
Description: as §1
BS: Bacillus subtilis 10707

[3] = system: Streptococcus faecalis ATCC 10541; experiment: as above; assay type: cell-based; conditions: Enterococcus faecalis, ATCC10541; Streptococcus faecalis ATCC 10541, pH 7.0, agar dilution method; read-out: minimum growth inhibitory concentration, SF
Description: as §1
SF: Streptococcus faecalis ATCC 10541

[4] = system: Proteus vulgalis ATCC 6897; experiment: as above; assay type: cell-based; conditions: pH 7, read-out: minimum growth inhibitory concentration, PV
Description: as §1
PV: Proteus vulgalis ATCC 6897

[5] = system: Sarcoma 180 solid tumour; experiment: animal or person; conditions: for CIc: CI of test compound divided by CI of mitomycin C as control in the same condition; for ED50: Mus musculus, Sarcoma-180, iv, 168 h; for CI (LD50/ED50): chemotherapeutic index
From the text: CIc : Value given by division of CI of each test compound by CI of
determination of antitumour activity of the test compound. A CIc
5×10^6 cells of Sarcoma 180 solid tumour were intraperitoneally implanted into ddY mice. 7 days later, ascites cells were sampled. The cells were washed once with a sterilized physiological sodium chloride solution and were used to prepare a cell suspension containing 5×10^7 cells per ml with a sterilized physiological sodium chloride solution. On each occasion, 0.1 ml of the cell suspension was subcutaneously implanted into the right axilla of a male mouse (ddY strain; body weight 20±2 g).
The anti-tumour activity was determined in the following manner. 7 days after the implantation, the major axis (a) and the minor axis (b) of the tumour were measured to calculate a value of "a×b^2 /2" which corresponds to the volume of the tumour. The anti-tumour activity was expressed by the ratio (T/C) of the volume (T) of the tumours of the group of animals administered with the test compound to the corresponding volume (C) of tumours of the untreated animals.
On graph paper, T/C was indicated by an arithmetic scale on the longitudinal axis and the administered amount of the test compound was indicated by a logarithmic scale on the lateral axis.

[6] = system: Klebsiella pneumoniae ATCC 10031; experiment: Antibacterial activity (minimum growth inhibitory concentration), agar dilution method; assay type: cell-based; conditions: ATCC10031; Klebsiella pneumoniae ATCC 10031, pH 7.0, agar dilution method; read-out: minimum growth inhibitory concentration, KP
Description: as §1
KP: Klebsiella pneumoniae ATCC 10031

[7] = system: peripheral leucocytes; experiment: Effect on the peripheral leucocytes number; assay type: in vivo, mouse (ddY strain); conditions: minimum dose reducing peripheral leucocytes number to 4000/mm^3; tumour-carrying ddY mice, intraperitoneal, 4 days after administration
Description: WBC4000 : Minimum dose of a test compound which reduces the
peripheral leucocytes number to 4000/mm^3.
Sarcoma 180 solid tumour cells (5×10^6) were subcutaneously implanted into the right axilla of each mouse (body weight 20±2 g) of a group consisting of 5 male mice (ddY strain). 24 hours after implantation,a test compound was intraperitoneally administered to each animal. 4 days after the administration, blood (each 0.02 ml) was collected from the suborbital plexus vein of each tumour-carrying animal. The collected sample of blood was dispersed in 9.98 ml of Cell-Kit Seven solution. One drop of saponin solution was added to the sample to dissolve erythrocytes and then a microcell counter was used to count the number of leucocytes. […] The relationship between the number of peripheral leucocytes and the dose of the test compound was plotted and the dose (i.e., WBC4000) corresponding to 4000 peripheral leucocytes/mm^3 (about half the number of leucocytes of normal mice) was obtained.

[8] = Acute toxicity; conditions: mouse, in vivo, ip; ddY mice, intraperitoneally once, 14 days observation
Description: Each animal of the test group consisting of 5 ddY mice was administered intraperitoneally once with a test compound. […] The LD50 was determined by Beherns Kaerber's method.

| SMILES | MIC [1] | MIC [2] | MIC [3] | MIC [4] | CIc [5] | ED50 [5] | CI (LD50/ED50) [5] | MIC [6] | WBC4000 [7] | LD50 at 336 h [8] |
| --- | --- | --- | --- | --- | --- | --- | --- | --- | --- | --- |
| CCC(=O)SCCNC1=C(C)C(=O)C2=C(C1=O)[C@@H](COC(N)=O)[C@@]1(OC)[C@H]3N[C@H]3CN21 [Compound 5] | < 0.02 µg/mL | < 0.02 µg/mL | < 0.02 µg/mL | 1.3 µg/mL (≈ 2.89 µM) | 0.59 | 5 mg/kg | 0.94 | 0.31 µg/mL (≈ 0.688 µM) | > 5 mg/kg | 4.7 mg/kg |
| CCC(=O)SCCNC1=C(C)C(=O)C2=C(C1=O)[C@H](COC(N)=O)[C@@]1(O)[C@@H]3[C@H](CN21)N3C (stereo partly drawn) [Compound 6] | 13 µg/mL (≈ 28.9 µM) | 0.78 µg/mL (≈ 1.73 µM) | 13 µg/mL (≈ 28.9 µM) | 100 µg/mL (≈ 222 µM) |  |  |  | 25 µg/mL (≈ 55.5 µM) |  |  |
| CO[C@@]12[C@H](COC(N)=O)C3=C(C(=O)C(C)=C(NCCCCCCCCSC(C)=O)C3=O)N1C[C@@H]1N[C@@H]12 [Compound 12] | 0.31 µg/mL (≈ 0.595 µM) | 0.31 µg/mL (≈ 0.595 µM) | 5 µg/mL (≈ 9.6 µM) | 5 µg/mL (≈ 9.6 µM) | 1.3 | 9.7 mg/kg | 4.6 | 1.3 µg/mL (≈ 2.5 µM) | 19.6 mg/kg | 45 mg/kg |
| CC1=C(NCCSC(=O)c2ccccc2)C(=O)C2=C(C1=O)N1C[C@H]3[C@H](N3C)[C@]1(O)[C@H]2COC(N)=O (stereo partly drawn) [Compound 14] | > 100 µg/mL | 0.39 µg/mL (≈ 0.782 µM) | 50 µg/mL (≈ 100 µM) |  |  |  |  | > 100 µg/mL |  |  |
| C=C1C2=C(C(=O)C(C)=C(NCCSC(=O)c3ccccc3)C2=O)N2C[C@H]3[C@H](N3C)[C@]12O (stereo partly drawn) [Compound 15] | 25 µg/mL (≈ 57.1 µM) | 1.6 µg/mL (≈ 3.66 µM) | > 100 µg/mL | 25 µg/mL (≈ 57.1 µM) | ≥ 0.74 | 27.5 mg/kg | ≥ 1.8 | 50 µg/mL (≈ 114 µM) | 27.5 mg/kg | ≥ 50 mg/kg |
| CO[C@@]12[C@H](COC(N)=O)C3=C(C(=O)C(C)=C(NCCSC(=O)c4ccccc4)C3=O)N1C[C@H]1[C@@H]2N1C (stereo partly drawn) [Compound 16] | 0.16 µg/mL (≈ 0.312 µM) | 0.078 µg/mL (≈ 0.152 µM) | 0.63 µg/mL (≈ 1.23 µM) | > 40 µg/mL |  |  |  | 10 µg/mL (≈ 19.5 µM) |  |  |
| CO[C@@]12[C@H](COC(N)=O)C3=C(C(=O)C(C)=C(NCCCCCCSC(=O)c4ccccc4)C3=O)N1C[C@@H]1N[C@@H]12 [Compound 17] | 0.63 µg/mL (≈ 1.14 µM) | 0.16 µg/mL (≈ 0.288 µM) | 2.5 µg/mL (≈ 4.51 µM) | > 40 µg/mL | > 1.7 | 9.5 mg/kg | > 5.3 | 10 µg/mL (≈ 18 µM) | 32.2 mg/kg | > 50 mg/kg |
| CC1=C(NCCSC(=O)c2ccc(F)cc2)C(=O)C2=C(C1=O)N1C[C@H]3[C@H](N3C)[C@]1(O)[C@H]2COC(N)=O (stereo partly drawn) [Compound 19, 7-N-[2-(4-fluorobenzoylthio)ethyl]mitomycin D] | 6.3 µg/mL (≈ 12.2 µM) | 1.6 µg/mL (≈ 3.1 µM) | 100 µg/mL (≈ 194 µM) |  | 0.89 | 5.6 mg/kg | 2.7 |  | 19.1 mg/kg | 15 mg/kg |
| CC1=C(NCCSC(=O)c2ccc(Br)cc2)C(=O)C2=C(C1=O)N1C[C@H]3[C@H](N3C)[C@]1(O)[C@H]2COC(N)=O (stereo partly drawn) [Compound 22] | 0.39 µg/mL (≈ 0.675 µM) | < 0.049 µg/mL | 25 µg/mL (≈ 43.3 µM) |  |  |  |  | > 100 µg/mL |  |  |
| COc1ccc(C(=O)SCCNC2=C(C)C(=O)C3=C(C2=O)[C@H](COC(N)=O)[C@@]2(O)[C@@H]4[C@H](CN32)N4C)cc1 (stereo partly drawn) [Compound 24] | 1.6 µg/mL (≈ 3.03 µM) | 1.6 µg/mL (≈ 3.03 µM) | 100 µg/mL (≈ 189 µM) |  | 1.3 | 7.2 mg/kg | 3.8 |  | 25.5 mg/kg | 27.5 mg/kg |
| C=C1C2=C(C(=O)C(C)=C(NCCSC(C)=S)C2=O)N2C[C@H]3[C@H](N3C)[C@]12O (stereo partly drawn) [Compound 29] | 3.1 µg/mL (≈ 7.92 µM) | 1.6 µg/mL (≈ 4.09 µM) | > 100 µg/mL | 13 µg/mL (≈ 33.2 µM) |  |  |  | 25 µg/mL (≈ 63.9 µM) |  |  |
| CO[C@@]12[C@H](COC(N)=O)C3=C(C(=O)C(C)=C(N)C3=O)N1C[C@@H]1N[C@@H]12 [MMC, mitomycin C, reference compound] |  |  |  |  | 1 |  |  |  | 2.4 to 6.1 mg/kg |  |
